Reference: patent US20070191413A1, “Novel heterocycle-substituted hydroxy-6-phenylphenanthridines and their use as pde4 inhibitors” (Atlanta Pharma AG, priority 2004, published 2007)
Each block holds one compound with its values, some of them ahead of it.

Target: T1, PDE4B2 (Homo sapiens, UniProt Q07343)
T1 construct: made in house; host or cells: SF21 insect cells (baculovirus; virus prepared in SF9 cells)
Test: Inhibition of PDE4B2 activity in a modified SPA (scintillation proximity assay) test
Format: biochemical
Conditions: recombinant PDE4B2 (SF21 cell supernatant), [3H]cAMP SPA, 0.5 μM cAMP, 37° C.; value given as a range for the group of listed compounds; read-out: Inhibition of the PDE4 activity, −log IC50 (converted)
Protocol: The PDE4B2 (GB no. M97515) was a gift of Prof. M. Conti (Stanford University, USA). It was amplified from the original plasmid (pCMV5) via PCR with primers Rb9 (5′-[…]-3′) and Rb10 (5′-[…]-3′) and cloned into the pCR-Bac vector (Invitrogen, Groningen, NL).
The recombinant baculovirus was prepared by means of homologous recombination in SF9 insect cells. The expression plasmid was cotransfected with Bac-N-Blue (Invitrogen, Groningen, NL) or Baculo-Gold DNA (Pharmingen, Hamburg) using a standard protocol (Pharmingen, Hamburg). Wt virus-free recombinant virus supernatant was selected using plaque assay methods. After that, high-titre virus supernatant was prepared by amplifying 3 times. PDE was expressed in SF21 cells by infecting 2×10^6 cells/ml with an MOI (multiplicity of infection) between 1 and 10 in serum-free SF900 medium (Life Technologies, Paisley, UK). The cells were cultured at 28° C. for 48-72 hours, after which they were pelleted for 5-10 min at 1000 g and 4° C.
The SF21 insect cells were resuspended, at a concentration of approx. 10^7 cells/ml, in ice-cold (4° C.) homogenization buffer (20 mM Tris, pH 8.2, containing the following additions: 140 mM NaCl, 3.8 mM KCl, 1 mM EGTA, 1 mM MgCl2, 10 mM P-mercaptoethanol, 2 mM benzamidine, 0.4 mM Pefablock, 10 μM leupeptin, 10 μM pepstatin A, 5 μM trypsin inhibitor) and disrupted by ultrasonication. The homogenate was then centrifuged for 10 min at 1000×g and the supernatant was stored at −80° C. until subsequent use (see below). The protein content was determined by the Bradford method (BioRad, Munich) using BSA as the standard.
PDE4B2 activity is inhibited by the said compounds in a modified SPA (scintillation proximity assay) test, supplied by Amersham Biosciences (see procedural instructions “phosphodiesterase [3H]cAMP SPA enzyme assay, code TRKQ 7090”), carried out in 96-well microtitre plates (MTP's). The test volume is 100 μl and contains 20 mM Tris buffer (pH 7.4), 0.1 mg of BSA (bovine serum albumin)/ml, 5 mM Mg^2+, 0.5 μM cAMP (including about 50,000 cpm of [3H]cAMP), 1 μl of the respective substance dilution in DMSO and sufficient recombinant PDE (1000×g supernatant, see above) to ensure that 10-20% of the CAMP is converted under the said experimental conditions. […] After a preincubation of 5 min at 37° C., the reaction is started by adding the substrate (cAMP) and the assay is incubated for a further 15 min; after that, it is stopped by adding SPA beads (50 μl). In accordance with the manufacturer's instructions, the SPA beads had previously been resuspended in water, but were then diluted 1:3 (v/v) in water; the diluted solution also contains 3 mM IBMX to ensure a complete PDE activity stop. After the beads have been sedimented (>30 min), the MTP's are analyzed in commercially available luminescence detection devices. The corresponding IC50 values of the compounds for the inhibition of PDE activity are determined from the concentration-effect curves by means of non-linear regression.

T1 sequence (Q07343 1-564 isoform Q07343-2): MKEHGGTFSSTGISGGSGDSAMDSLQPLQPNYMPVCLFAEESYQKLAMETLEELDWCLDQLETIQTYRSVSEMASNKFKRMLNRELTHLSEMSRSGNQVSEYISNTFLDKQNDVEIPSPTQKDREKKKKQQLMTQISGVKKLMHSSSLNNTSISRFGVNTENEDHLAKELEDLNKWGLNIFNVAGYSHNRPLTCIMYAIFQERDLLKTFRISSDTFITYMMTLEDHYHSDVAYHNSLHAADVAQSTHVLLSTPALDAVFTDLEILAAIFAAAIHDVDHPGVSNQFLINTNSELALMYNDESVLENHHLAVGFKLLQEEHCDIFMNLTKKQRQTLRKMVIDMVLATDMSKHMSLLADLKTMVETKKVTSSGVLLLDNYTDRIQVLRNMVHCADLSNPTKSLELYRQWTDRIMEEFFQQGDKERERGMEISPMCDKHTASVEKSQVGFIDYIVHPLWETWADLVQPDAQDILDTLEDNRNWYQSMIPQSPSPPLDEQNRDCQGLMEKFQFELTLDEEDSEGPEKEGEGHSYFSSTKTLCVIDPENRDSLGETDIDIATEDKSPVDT

SMILES: CCOc1cc2c(cc1OC)C(c1ccc(-n3ccnc3)cc1)=N[C@@H]1CC[C@@H](O)C[C@H]21 (racemic) [Compound 1, (2RS,4aRS,10bRS)-9-Ethoxy-6-(4-imidazol-1 yl-phenyl)-8-methoxy-1,2,3,4,4a,10b-hexahydro-phenanthridin-2-ol]
IC50: 0.724 to 7.41 nM

SMILES: CCOc1cc2c(cc1OC)C(c1ccc(N3CCN(C)CC3)cc1)=N[C@@H]1CC[C@@H](O)C[C@H]21 (racemic) [Compound 2, (2RS,4aRS,10bRS)-9-Ethoxy-8-methoxy-6-[4-(4-methyl-piperazin-1-yl)-phenyl]-1,2,3,4,4a,10b-hexahydro-phenanthridin-2-ol]
IC50: 0.724 to 7.41 nM

SMILES: CCOc1cc2c(cc1OC)C(c1ccc(-c3nc(OC)cc(OC)n3)cc1)=N[C@@H]1CC[C@@H](O)C[C@H]21 (racemic) [Compound 3, (2RS,4aRS,10bRS)-6-[4-(4,6-Dimethoxy-pyrimidin-2-yl)-phenyl]-9-ethoxy-8-methoxy-1,2,3,4,4a,10b-hexahydro-phenanthridin-2-ol]
IC50: 0.724 to 7.41 nM

SMILES: CCOc1cc2c(cc1OC)C(c1ccc(-c3csnn3)cc1)=N[C@@H]1CC[C@@H](O)C[C@H]21 (racemic) [Compound 4, (2RS,4aRS,10bRS)-9-Ethoxy-8-methoxy-6-(4-[1,2,3]thiadiazol-4-yl-phenyl)-1,2,3,4,4a,10b-hexahydro-phenanthridin-2ol]
IC50: 0.724 to 7.41 nM

SMILES: CCOc1cc2c(cc1OC)C(c1ccc(N3CCOCC3)cc1)=N[C@@H]1CC[C@@H](O)C[C@H]21 (racemic) [Compound 5, (2RS,4aRS,10bRS)-9-Ethoxy-8-methoxy-6-(4-morpholin-4-yl-phenyl)-1,2,3,4,4a,10b-hexahydro-phenanthridin-2-ol]
IC50: 0.724 to 7.41 nM

Next, values leading:

IC50: 0.724 to 7.41 nM
SMILES: CCCn1nnc(-c2ccc(C3=N[C@@H]4CC[C@@H](O)C[C@@H]4c4cc(OC)c(OC)cc43)cc2)n1 (racemic) [Compound 6, (2RS,4aRS,10bRS)-8,9-Dimethoxy-6-[4-(2-propyl-2H-tetrazol-5-yl)-phenyl]-1,2,3,4,4a,10b-hexahydro-phenanthridin-2-ol]

IC50: 0.724 to 7.41 nM
SMILES: CCn1nnc(-c2ccc(C3=N[C@@H]4CC[C@@H](O)C[C@@H]4c4cc(OC)c(OC(F)F)cc43)cc2)n1 (racemic) [Compound 7, (2RS,4aRS,10bRS)-8-(1,1-Difluoro-methoxy)-6-[4-(2ethyl-2H-tetrazol-5-yl)-phenyl]-9-methoxy-1,2,3,4,4a,10b-hexahydro-phenanthridin-2-ol]

IC50: 0.724 to 7.41 nM
SMILES: CCn1nnc(-c2ccc(C3=N[C@@H]4CC[C@@H](O)C[C@@H]4c4cc(OC(F)F)c(OC)cc43)cc2)n1 (racemic) [Compound 8, (2RS,4aRS,10bRS)-9-(1,1-Difluoro-methoxy)-6-[4-(2-ethyl-2H-tetrazol-5-yl)-phenyl]-8-methoxy-1,2,3,4,4a,10b-hexahydro-phenanthridin-2ol]
